Laboratory results as given in ChEMBL document CHEMBL1201862, “PubChem BioAssay data set” (2004).
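Compound exposure: 48 hours, 5 concentrations, 96-well plates. Abbreviation: GI50, concentration required for 50% inhibition of growth.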 Active and inactive are the calls of the source. No stated cut-off is given here; in the data, active = GI50 up to about 1.1 µM and inactive = higher.

How the values were obtained:
Test in all cases: NCI tumour cell line growth inhibition, 48 h
786-0 = test system: 786-0
A498 = test system: A498
A549 = test system: A549
ACHN = test system: ACHN
BT-549 = test system: BT-549
CAKI-1 = test system: CAKI-1
CCRF-CEM = test system: CCRF-CEM
COLO 205 = test system: COLO 205
DU-145 = test system: DU-145
EKVX = test system: EKVX
HCC 2998 = test system: HCC 2998
HCT-116 = test system: HCT-116
HCT-15 = test system: HCT-15
HOP-62 = test system: HOP-62
HOP-92 = test system: HOP-92
HT-29 = test system: HT-29
Hs-578T = test system: Hs-578T
IGROV-1 = test system: IGROV-1
K562 = test system: K562
KM12 = test system: KM12
M14 = test system: M14
MCF7 = test system: MCF7
MDA-MB-231 = test system: MDA-MB-231
MDA-MB-435 = test system: MDA-MB-435
MDA-N = test system: MDA-N
MOLT-4 = test system: MOLT-4
NCI-H226 = test system: NCI-H226
NCI-H23 = test system: NCI-H23
NCI-H460 = test system: NCI-H460
NCI-H522 = test system: NCI-H522
NCI/ADR-RES = test system: NCI/ADR-RES
OVCAR-3 = test system: OVCAR-3
OVCAR-4 = test system: OVCAR-4
OVCAR-5 = test system: OVCAR-5
OVCAR-8 = test system: OVCAR-8
PC-3 = test system: PC-3
RPMI-8226 = test system: RPMI-8226
RXF 393 = test system: RXF 393
SF-268 = test system: SF-268
SF-295 = test system: SF-295
SF-539 = test system: SF-539
SK-MEL-28 = test system: SK-MEL-28
SK-MEL-2 = test system: SK-MEL-2
SK-MEL-5 = test system: SK-MEL-5
SK-OV-3 = test system: SK-OV-3
SN12C = test system: SN12C
SNB-19 = test system: SNB-19
SNB-75 = test system: SNB-75
SR = test system: SR
SW-620 = test system: SW-620
T47D = test system: T47D
TK-10 = test system: TK-10
U-251 = test system: U-251
UACC-257 = test system: UACC-257
UACC-62 = test system: UACC-62
UO-31 = test system: UO-31
LOX IMVI = test system: LOX IMVI
Malme-3M = test system: Malme-3M

Question: `N#CCCN(CCC#N)c1ccc(C(=N/c2ccc(F)cc2)/N=N/c2ccccc2)cc1` was tested. Which GI50 (786-0) did it give?
Answer: > 100 µM (inactive)

Question: What about the GI50 (A498) of the same molecule?
Answer: > 100 µM (inactive)

Question: And the GI50 (A549)?
Answer: 37.8 µM (inactive)

Question: What about the GI50 (ACHN) of the same molecule?
Answer: > 100 µM (inactive)

Question: What about the GI50 (BT-549) of the same molecule?
Answer: 34 µM (inactive)

Question: What about the GI50 (CAKI-1) of the same molecule?
Answer: > 100 µM (inactive)

Question: And the GI50 (CCRF-CEM)?
Answer: < 0.01 µM (active)

Question: And the GI50 (COLO 205)?
Answer: > 100 µM (inactive)

Question: And the GI50 (DU-145)?
Answer: > 100 µM (inactive)

Question: What about the GI50 (EKVX) of the same molecule?
Answer: > 100 µM (inactive)

Question: What about the GI50 (HCC 2998) of the same molecule?
Answer: > 100 µM (inactive)

Question: What about the GI50 (HCT-116) of the same molecule?
Answer: > 100 µM (inactive)

Question: What about the GI50 (HCT-15) of the same molecule?
Answer: > 100 µM

Question: And the GI50 (HOP-62)?
Answer: > 100 µM (inactive)

Question: What about the GI50 (HOP-92) of the same molecule?
Answer: > 100 µM (inactive)

Question: What about the GI50 (HT-29) of the same molecule?
Answer: > 100 µM (inactive)

Question: And the GI50 (Hs-578T)?
Answer: > 100 µM (inactive)

Question: What about the GI50 (IGROV-1) of the same molecule?
Answer: > 100 µM (inactive)

Question: And the GI50 (K562)?
Answer: > 100 µM (inactive)

Question: What about the GI50 (KM12) of the same molecule?
Answer: 35.5 µM (inactive)

Question: What about the GI50 (M14) of the same molecule?
Answer: > 100 µM (inactive)

Question: What about the GI50 (MCF7) of the same molecule?
Answer: > 100 µM (inactive)

Question: And the GI50 (MDA-MB-231)?
Answer: 82.6 µM (inactive)

Question: What about the GI50 (MDA-MB-435) of the same molecule?
Answer: > 100 µM (inactive)

Question: And the GI50 (MDA-N)?
Answer: > 100 µM (inactive)

Question: What about the GI50 (MOLT-4) of the same molecule?
Answer: > 100 µM (inactive)

Question: And the GI50 (NCI-H226)?
Answer: > 100 µM (inactive)

Question: And the GI50 (NCI-H23)?
Answer: 96.8 µM (inactive)

Question: And the GI50 (NCI-H460)?
Answer: 60.1 µM (inactive)

Question: And the GI50 (NCI-H522)?
Answer: 21.7 µM (inactive)

Question: What about the GI50 (NCI/ADR-RES) of the same molecule?
Answer: > 100 µM (inactive)

Question: And the GI50 (OVCAR-3)?
Answer: 95.3 µM (inactive)

Question: And the GI50 (OVCAR-4)?
Answer: 93.5 µM (inactive)

Question: What about the GI50 (OVCAR-5) of the same molecule?
Answer: > 100 µM (inactive)

Question: What about the GI50 (OVCAR-8) of the same molecule?
Answer: > 100 µM (inactive)

Question: And the GI50 (PC-3)?
Answer: > 100 µM (inactive)

Question: What about the GI50 (RPMI-8226) of the same molecule?
Answer: > 100 µM (inactive)

Question: And the GI50 (RXF 393)?
Answer: 2.67 µM (inactive)

Question: What about the GI50 (SF-268) of the same molecule?
Answer: > 100 µM (inactive)

Question: And the GI50 (SF-295)?
Answer: 32.8 µM (inactive)

Question: What about the GI50 (SF-539) of the same molecule?
Answer: > 100 µM (inactive)

Question: And the GI50 (SK-MEL-28)?
Answer: > 100 µM (inactive)

Question: What about the GI50 (SK-MEL-2) of the same molecule?
Answer: 93.3 µM (inactive)

Question: What about the GI50 (SK-MEL-5) of the same molecule?
Answer: 83.6 µM (inactive)

Question: And the GI50 (SK-OV-3)?
Answer: > 100 µM (inactive)

Question: And the GI50 (SN12C)?
Answer: > 100 µM (inactive)

Question: What about the GI50 (SNB-19) of the same molecule?
Answer: > 100 µM (inactive)

Question: What about the GI50 (SNB-75) of the same molecule?
Answer: 57.5 µM (inactive)

Question: And the GI50 (SR)?
Answer: 33 µM (inactive)

Question: What about the GI50 (SW-620) of the same molecule?
Answer: > 100 µM (inactive)

Question: And the GI50 (T47D)?
Answer: 15.1 µM (inactive)

Question: What about the GI50 (TK-10) of the same molecule?
Answer: > 100 µM (inactive)

Question: And the GI50 (U-251)?
Answer: 50.9 µM (inactive)

Question: What about the GI50 (UACC-257) of the same molecule?
Answer: 60.5 µM (inactive)

Question: What about the GI50 (UACC-62) of the same molecule?
Answer: > 100 µM (inactive)

Question: And the GI50 (UO-31)?
Answer: > 100 µM (inactive)

Question: `CCN1C[C@]2(C)CC[C@H](OCc3ccccc3)C34C5C[C@@H]6CC[C@](O)(C(C[C@@H]32)C14)C5[C@H]6OCc1ccccc1` (some centres not stated) was tested. Which GI50 (786-0) did it give?
Answer: > 100 µM (inactive)

Question: And the GI50 (A498)?
Answer: > 100 µM (inactive)

Question: What about the GI50 (A549) of the same molecule?
Answer: > 100 µM (inactive)

Question: What about the GI50 (ACHN) of the same molecule?
Answer: 32.4 µM (inactive)

Question: And the GI50 (BT-549)?
Answer: > 100 µM (inactive)

Question: What about the GI50 (CCRF-CEM) of the same molecule?
Answer: 56.5 µM (inactive)

Question: And the GI50 (COLO 205)?
Answer: 42 µM (inactive)

Question: What about the GI50 (DU-145) of the same molecule?
Answer: > 100 µM (inactive)

Question: And the GI50 (EKVX)?
Answer: 44.7 µM (inactive)

Question: What about the GI50 (HCC 2998) of the same molecule?
Answer: 20 µM (inactive)

Question: And the GI50 (HCT-116)?
Answer: 42.7 µM (inactive)

Question: What about the GI50 (HCT-15) of the same molecule?
Answer: > 100 µM

Question: What about the GI50 (HOP-62) of the same molecule?
Answer: > 100 µM (inactive)

Question: And the GI50 (HOP-92)?
Answer: > 100 µM (inactive)

Question: What about the GI50 (HT-29) of the same molecule?
Answer: 55.2 µM (inactive)

Question: And the GI50 (Hs-578T)?
Answer: > 100 µM (inactive)

Question: And the GI50 (IGROV-1)?
Answer: 92.3 µM (inactive)

Question: And the GI50 (K562)?
Answer: 55.6 µM (inactive)

Question: What about the GI50 (KM12) of the same molecule?
Answer: 38.5 µM (inactive)

Question: And the GI50 (LOX IMVI)?
Answer: > 100 µM (inactive)

Question: What about the GI50 (M14) of the same molecule?
Answer: 46.9 µM (inactive)

Question: What about the GI50 (MCF7) of the same molecule?
Answer: 7.01 µM (inactive)

Question: And the GI50 (MDA-MB-231)?
Answer: 52.1 µM (inactive)

Question: What about the GI50 (MDA-MB-435) of the same molecule?
Answer: 90.8 µM (inactive)

Question: What about the GI50 (MDA-N) of the same molecule?
Answer: 75.5 µM (inactive)

Question: What about the GI50 (MOLT-4) of the same molecule?
Answer: 16.7 µM (inactive)

Question: What about the GI50 (Malme-3M) of the same molecule?
Answer: > 100 µM (inactive)

Question: And the GI50 (NCI-H226)?
Answer: > 100 µM (inactive)

Question: And the GI50 (NCI-H23)?
Answer: > 100 µM (inactive)

Question: And the GI50 (NCI-H460)?
Answer: 31.2 µM (inactive)

Question: What about the GI50 (NCI/ADR-RES) of the same molecule?
Answer: > 100 µM (inactive)

Question: What about the GI50 (OVCAR-3) of the same molecule?
Answer: 35.6 µM (inactive)

Question: What about the GI50 (OVCAR-4) of the same molecule?
Answer: 85.1 µM (inactive)

Question: And the GI50 (OVCAR-5)?
Answer: > 100 µM (inactive)

Question: And the GI50 (OVCAR-8)?
Answer: 93.8 µM (inactive)

Question: What about the GI50 (PC-3) of the same molecule?
Answer: 21.7 µM (inactive)

Question: What about the GI50 (RPMI-8226) of the same molecule?
Answer: 31 µM (inactive)

Question: And the GI50 (RXF 393)?
Answer: 53.1 µM (inactive)

Question: What about the GI50 (SF-268) of the same molecule?
Answer: > 100 µM (inactive)

Question: What about the GI50 (SF-295) of the same molecule?
Answer: > 100 µM (inactive)

Question: What about the GI50 (SF-539) of the same molecule?
Answer: > 100 µM (inactive)

Question: What about the GI50 (SK-MEL-28) of the same molecule?
Answer: > 100 µM (inactive)

Question: What about the GI50 (SK-MEL-2) of the same molecule?
Answer: 83.9 µM (inactive)

Question: What about the GI50 (SK-MEL-5) of the same molecule?
Answer: 51.3 µM (inactive)

Question: And the GI50 (SK-OV-3)?
Answer: > 100 µM (inactive)

Question: And the GI50 (SN12C)?
Answer: > 100 µM (inactive)

Question: What about the GI50 (SNB-19) of the same molecule?
Answer: > 100 µM (inactive)

Question: What about the GI50 (SNB-75) of the same molecule?
Answer: 49 µM (inactive)

Question: And the GI50 (SR)?
Answer: 54.8 µM (inactive)

Question: What about the GI50 (SW-620) of the same molecule?
Answer: > 100 µM (inactive)

Question: What about the GI50 (T47D) of the same molecule?
Answer: 56.1 µM (inactive)

Question: What about the GI50 (TK-10) of the same molecule?
Answer: 45.8 µM (inactive)

Question: What about the GI50 (U-251) of the same molecule?
Answer: 64.9 µM (inactive)

Question: And the GI50 (UACC-257)?
Answer: 29.9 µM (inactive)

Question: What about the GI50 (UACC-62) of the same molecule?
Answer: > 100 µM (inactive)

Question: And the GI50 (UO-31)?
Answer: 73.1 µM (inactive)
